We go through 21 compounds from patent publication US20250361234A1 (NICO THERAPEUTICS, INC., priority 2022, published 2025).

The IC50 is the concentration needed to halve the response being measured.

This assay concerns the target T1, full-length SARM1 (FL-SARM1) (Homo sapiens, UniProt Q6SZW1).
T1 sequence (Q6SZW1 28-724): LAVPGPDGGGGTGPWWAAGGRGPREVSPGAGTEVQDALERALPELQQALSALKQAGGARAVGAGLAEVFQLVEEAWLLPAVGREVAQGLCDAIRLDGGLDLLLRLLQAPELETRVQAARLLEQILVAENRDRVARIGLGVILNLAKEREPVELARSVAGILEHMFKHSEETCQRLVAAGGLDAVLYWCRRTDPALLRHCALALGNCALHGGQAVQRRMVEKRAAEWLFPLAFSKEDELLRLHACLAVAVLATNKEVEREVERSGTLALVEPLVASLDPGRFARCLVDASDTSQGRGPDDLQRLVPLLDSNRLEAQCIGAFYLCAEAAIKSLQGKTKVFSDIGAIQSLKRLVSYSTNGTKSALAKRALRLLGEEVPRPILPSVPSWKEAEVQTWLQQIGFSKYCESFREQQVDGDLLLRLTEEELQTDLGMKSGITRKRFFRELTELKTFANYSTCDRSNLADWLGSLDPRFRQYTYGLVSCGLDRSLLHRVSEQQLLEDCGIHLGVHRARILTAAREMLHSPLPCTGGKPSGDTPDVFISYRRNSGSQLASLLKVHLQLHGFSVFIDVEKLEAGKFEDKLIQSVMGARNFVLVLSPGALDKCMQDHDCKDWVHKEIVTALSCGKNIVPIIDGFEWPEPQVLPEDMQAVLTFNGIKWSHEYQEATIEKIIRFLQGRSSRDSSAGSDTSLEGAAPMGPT
The assay can be described thus: FL-SARM1 cellular lysate assay (NAD/NADH-Glo readout of remaining NAD+). The following applies: SARM1 cellular lysate from transfected HEK293T cells, NAD+ and NMN, 11 point curve.

On to `Cc1ccc(NC(=O)N2C3CCC2CC3)cc1-c1cncc(F)c1` [Example 97, N-[3-(5-fluoropyridin-3-yl)-4-methylphenyl]-7-azabicyclo[2.2.1]heptane-7-carboxamide], for which the IC50 is 0.4 µM (Activity (μM)) and 0.0001 to 1 µM (Activity).
Turning to `Cc1ccc(NC(=O)N2C3C[C@H](OC(F)F)C[C@H]2C3)cc1-c1cncc(F)c1` [Example 56, trans-3-(difluoromethoxy)-N-(3-(5-fluoropyridin-3-yl)-4-methylphenyl)-6-azabicyclo[3.1.1]heptane-6-carboxamide], the IC50 is 0.09 µM (Activity (μM)) and 0.0001 to 1 µM (Activity).
Turning to `Cc1ccc(NC(=O)N2C3CC2CC(C)(O)C3)cc1-c1cncc(F)c1` (single isomer, unassigned) [Example 46, N-(3-(5-fluoropyridin-3-yl)-4-methylphenyl)-3-hydroxy-3-methyl-6-azabicyclo[3.1.1]heptane-6-carboxamide], the IC50 runs as follows: (Activity (μM)) 8.7 µM; (Activity) 1 to 10 µM.
In the case of `C[C@@H]1CC2C[C@H](C1)N2C(=O)Nc1ccc(F)c(-c2cncc(F)c2)c1` (single isomer, unassigned) [Example 58, cis-N-(4-fluoro-3-(5-fluoropyridin-3-yl)phenyl)-3-methyl-6-azabicyclo[3.1.1]heptane-6-carboxamide], the IC50 is, setting by setting: (Activity (μM)) 0.3 µM; (Activity) 0.0001 to 1 µM.
As to `Cc1ccc(NC(=O)N2C3C[C@H](C#N)C[C@@H]2C3)cc1-c1cncc(F)c1` [Example 49, cis-3-cyano-N-(3-(5-fluoropyridin-3-yl)-4-methylphenyl)-6-azabicyclo[3.1.1]heptane-6-carboxamide], 0.4 µM corresponded to half-maximal inhibition (Activity (μM)) (IC50) and the IC50 (Activity) fell in the range of 0.0001 to 1 µM.
As to `Cc1ccc(NC(=O)N2C3C[C@H](C)C[C@@H]2C3)cc1-c1cccnc1` [Example 17, cis-3-methyl-N-(4-methyl-3-(pyridin-3-yl)phenyl)-6-azabicyclo[3.1.1]heptane-6-carboxamide], the IC50 reads like this: (Activity (μM)) 0.008 µM; (Activity) 0.0001 to 1 µM.
Consider `CCc1ccc(NC(=O)N2[C@@H]3C[C@H](C)C[C@H]2C3)cc1-c1cncc(F)c1` [Example 76, trans-N-(4-ethyl-3-(5-fluoropyridin-3-yl)phenyl)-3-methyl-6-azabicyclo[3.1.1]heptane-6-carboxamide], for which the IC50 runs as follows: (Activity (μM)) 0.03 µM; (Activity) 0.0001 to 1 µM.
`C[C@@H]1CC2C[C@@H](C1)N2C(=O)Nc1ccc(C2CC2)c(-c2cncc(F)c2)c1` (single isomer, unassigned) [Example 50, trans-N-(4-cyclopropyl-3-(5-fluoropyridin-3-yl)phenyl)-3-methyl-6-azabicyclo[3.1.1]heptane-6-carboxamide]: the IC50 (Activity (μM)) turned out to be 0.2 µM and the IC50 (Activity) is 0.0001 to 1 µM.
On the same counts, the results for `COc1ncccc1-c1cc(NC(=O)N2C3CCCC2C3)ccc1C` [Example 68, N-(3-(2-methoxypyridin-3-yl)-4-methylphenyl)-6-azabicyclo[3.1.1]heptane-6-carboxamide] are 2.5 µM and 1 to 10 µM.
For `Cc1ccc(NC(=O)[C@@H]2CC2(F)F)cc1-c1cccnc1C` [Example 112, (1S)-2,2-difluoro-N-[4-methyl-3-(2-methylpyridin-3-yl)phenyl]cyclopropane-1-carboxamide], the IC50 is, setting by setting: (Activity (μM)) 33.3 µM; (Activity) above 10 µM.
The matching figures for `Cc1ccc(NC(=O)N2C3C[C@@H](C#N)C[C@@H]2C3)cc1-c1cncc(F)c1` [Example 36, trans-3-cyano-N-(3-(5-fluoropyridin-3-yl)-4-methylphenyl)-6-azabicyclo[3.1.1]heptane-6-carboxamide]: 0.8 µM and 0.0001 to 1 µM.
Consider `Cc1nnc([C@]23C[C@H](C)C[C@H](C2)N3C(=O)Nc2cc(-c3cncc(F)c3)c(C)cc2F)o1` (single isomer, unassigned) [Example 125, cis-N-(2-fluoro-5-(5-fluoropyridin-3-yl)-4-methylphenyl)-3-methyl-1-(5-methyl-1,3,4-oxadiazol-2-yl)-6-azabicyclo[3.1.1]heptane-6-carboxamide], for which the IC50 was 0.025 µM (Activity (μM)) and 0.0001 to 1 µM (Activity).
The matching figures for `Cc1ccc(NC(=O)N2C[C@H]3C[C@@H]2CN3c2ncccn2)cc1-c1cncc(F)c1` [Example 19, (1R,4R)-N-(3-(5-fluoropyridin-3-yl)-4-methylphenyl)-5-(pyrimidin-2-yl)-2,5-diazabicyclo[2.2.1]heptane-2-carboxamide]: 19.8 µM and above 10 µM.
Consider `C[C@@H]1CC2C[C@H](C1)N2C(=O)Nc1ccc(C(F)F)c(-c2cncc(F)c2)c1` [Example 42, cis-N-(4-(difluoromethyl)-3-(5-fluoropyridin-3-yl)phenyl)-3-methyl-6-azabicyclo[3.1.1]heptane-6-carboxamide], for which the IC50 (Activity (μM)) was 0.06 µM and the IC50 (Activity) lay in the range of 0.0001 to 1 µM.
The matching figures for `Cc1ccc(NC(=O)N2C3C[C@H](CF)C[C@@H]2C3)cc1-c1cncc(F)c1` [Example 1, cis-3-(fluoromethyl)-N-(3-(5-fluoropyridin-3-yl)-4-methylphenyl)-6-azabicyclo[3.1.1]heptane-6-carboxamide]: 0.06 µM and 0.0001 to 1 µM.
The matching figures for `Cc1ccc(NC(=O)N2C3C[C@H]2C[C@H](n2cccn2)C3)cc1-c1cncc(F)c1` [Example 6, trans-N-(3-(5-fluoropyridin-3-yl)-4-methylphenyl)-3-(1H-pyrazol-1-yl)-6-azabicyclo[3.1.1]heptane-6-carboxamide]: 6.6 µM and 1 to 10 µM.
On the same counts, the results for `Cc1ccc(NC(=O)N2C3CCCC2C3)cc1-c1cncc(S(C)(=O)=O)c1` [Example 47, N-(4-methyl-3-(5-(methylsulfonyl)pyridin-3-yl)phenyl)-6-azabicyclo[3.1.1]heptane-6-carboxamide] are 17 µM and above 10 µM.
On to `Cc1ccc(NC(=O)N2[C@@H]3C[C@H](C)C[C@H]2C3)cc1-c1cncc(F)c1` [Example 84, cis-N-(3-(5-fluoropyridin-3-yl)-4-methylphenyl)-3-methyl-6-azabicyclo[3.1.1]heptane-6-carboxamide], for which the IC50 by setting is: (Activity (μM)) 0.007 µM; (Activity) 0.0001 to 1 µM.
The matching figures for `COc1cncc(-c2cc(NC(=O)N3[C@@H]4C[C@@H](C)C[C@@]3(c3nnc(C)o3)C4)c(F)cc2C(F)(F)F)c1` (single isomer, unassigned) [Example 123, cis-N-(2-fluoro-5-(5-methoxypyridin-3-yl)-4-(trifluoromethyl)phenyl)-3-methyl-1-(5-methyl-1,3,4-oxadiazol-2-yl)-6-azabicyclo[3.1.1]heptane-6-carboxamide]: 0.006 µM and 0.0001 to 1 µM.
As to `O=C(Nc1ccc(F)c(-c2cncc(F)c2)c1)N1C2CCCC1C2` [Example 74, N-(4-fluoro-3-(5-fluoropyridin-3-yl)phenyl)-6-azabicyclo[3.1.1]heptane-6-carboxamide], the IC50 reads like this: (Activity (μM)) 2.8 µM; (Activity) 1 to 10 µM.
The matching figures for `COC[C@H]1CC[C@H]2CC1N2C(=O)Nc1ccc(C)c(-c2cncc(F)c2)c1` [Example 15, cis-N-(3-(5-fluoropyridin-3-yl)-4-methylphenyl)-2-(methoxymethyl)-6-azabicyclo[3.1.1]heptane-6-carboxamide]: 1.7 µM and 1 to 10 µM.
